# Source: US20230143612A1 (Arbutus Biopharma Corporation, priority 2020, published 2023)
# Molecular target: PD-L1 His protein / PD-1 Fc protein (Homo sapiens, UniProt Q9NZQ7)
# Test: HTRF Assay (PD-1/PD-L1 interaction)
# Type: binding
# Details: PD-L1 His 6 nM, PD-1 Fc 6 nM
# Outline: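 HTRF: PD-L1 His (6 nM final), compound (3-fold dilutions, 20 μM to 0.001 μM final) and PD-1 Fc (6 nM final) preincubated 15 min at room temperature. Anti-human IgG-XL665 and anti-6HIS Tb cryptate (mixed at 6.7 nM and 0.35 nM) then added for 1 h at room temperature before reading.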
# PD-L1 His protein / PD-1 Fc protein, sequence (Q9NZQ7 19-238 limits assumed): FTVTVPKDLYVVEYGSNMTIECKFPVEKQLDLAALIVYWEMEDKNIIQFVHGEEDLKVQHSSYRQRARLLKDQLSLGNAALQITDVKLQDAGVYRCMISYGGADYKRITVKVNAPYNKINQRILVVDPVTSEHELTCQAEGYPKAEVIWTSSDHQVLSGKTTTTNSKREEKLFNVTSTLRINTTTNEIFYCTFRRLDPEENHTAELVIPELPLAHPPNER
row,SMILES,IC50
1,"COc1cc2c(cc1CNC[C@@H]1CCC(=O)N1)CCC2=Cc1cccc(-c2cccc(-c3ccc(CNC[C@@H]4CCC(=O)N4)c(OC)n3)c2Cl)c1Cl [Example 228, (S)-5-((((6-(2,2′-Dichloro-3′-((6-methoxy-5-(((((S)-5-oxopyrrolidin-2-yl)methyl)amino)methyl)-2,3-dihydro-1H-inden-1-ylidene)methyl)-[1,1′-biphenyl]-3-yl)-2-methoxypyridin-3-yl)methyl)amino)methyl)pyrrolidin-2-one]",3200 nM
2,"COc1nc(-c2cccc(-c3cccc(-c4ccn5c(=O)c(CNC[C@@H]6CCC(=O)N6)cnc5c4)c3Cl)c2Cl)ccc1CNC[C@H](C)O [Example 197, 8-(2,2′-Dichloro-3′-(5-((((S)-2-hydroxypropyl)amino)methyl)-6-methoxypyridin-2-yl)-[1,1′-biphenyl]-3-yl)-3-(((((S)-5-oxopyrrolidin-2-yl)methyl)amino)methyl)-4H-pyrido[1,2-a]pyrimidin-4-one]",0.2 nM
3,"COc1nc(-c2cccc(-c3cccc(-c4ccn5c(=O)c(CNC[C@H](C)OC)cnc5c4)c3Cl)c2Cl)ccc1CNC[C@@H]1CCC(=O)N1 [Example 302, 8-[2-Chloro-3-[2-chloro-3-[6-methoxy-5-[[[(2S)-5-oxopyrrolidin-2-yl]methylamino]methyl]-2-pyridyl]phenyl]phenyl]-3-[[[(2S)-2-methoxypropyl]amino]methyl]pyrido[1,2-a]pyrimidin-4-one]",35 nM
4,"COc1nc(-c2cccc(-c3cccc(-c4ccc5c(CNC[C@@H]6CCCO6)cn(C)c5n4)c3Cl)c2Cl)ccc1CNC[C@@H]1CCC(=O)N1 [Example 444, (5S)-5-[[[6-[2-Chloro-3-[2-chloro-3-[1-methyl-3-[[[(2S)-tetrahydrofuran-2-yl]methylamino]methyl]pyrrolo[2,3-b]pyridin-6-yl]phenyl]phenyl]-2-methoxy-3-pyridyl]methylamino]methyl]pyrrolidin-2-one]",920 nM
5,"COc1cc(-c2cccc(-c3cccc(-c4cc5c(c(OC)c4)CN(C[C@@H]4CCC(=O)N4)CC5)c3Cl)c2Cl)cc2c1CN(C[C@@H]1CCC(=O)N1)CC2 [Example 394, (5S,5'S)-5,5′-((6,6′-(2,2′-Dichloro-[1,1′-biphenyl]-3,3′-diyl)bis(8-methoxy-3,4-dihydroisoquinoline-6,2(1H)-diyl))bis(methylene))bis(pyrrolidin-2-one)]",71 nM
6,"COc1nc(-c2cccc(-c3cccc(-c4ccc5c(CNC[C@@H]6CCC(=O)N6)cn(C)c5n4)c3Cl)c2Cl)ccc1CNC[C@@H]1CCC(=O)N1 [Example 388, (5S)-5-[[[6-[2-Chloro-3-[2-chloro-3-[1-methyl-3-[[[(2S)-5-oxopyrrolidin-2-yl]methylamino]methyl]pyrrolo[2,3-b]pyridin-6-yl]phenyl]phenyl]-2-methoxy-3-pyridyl]methylamino]methyl]pyrrolidin-2-one]",610 nM
7,"COc1nc(-c2cccc(-c3cccc(-c4ccn5c(=O)c(CNCCCC(F)(F)C(F)(F)F)cnc5c4)c3Cl)c2Cl)ccc1CNC[C@@H]1CCC(=O)N1 [Example 223, (S)-8-(2,2′-dichloro-3′-(6-methoxy-5-((((5-oxopyrrolidin-2-yl)-methyl)-amino)methyl)-pyridin-2-yl)-[1,1′-biphenyl]-3-yl)-3-(((4,4,5,5,5-pentafluoropentyl)amino)-methyl)-4H-pyrido[1,2-a]pyrimidin-4-one]",10 nM
8,"COc1nc(-c2cccc(-c3cccc(-c4cc5c(=O)n(C)c(CN[C@H]6C[C@](C)(O)C6)nn5c4)c3Cl)c2Cl)ccc1CNC[C@@H]1CCC(=O)N1 [Example 332, 6-(2,2′-Dichloro-3′-(6-methoxy-5-(((((S)-5-oxopyrrolidin-2-yl)methyl)amino)methyl)pyridin-2-yl)-[1,1′-biphenyl]-3-yl)-2-((((1r,3r)-3-hydroxy-3-methylcyclobutyl)amino)methyl)-3-methylpyrrolo[2,1-f][1,2,4]triazin-4(3H)-one]",500 nM
9,"COc1nc(-c2cccc(-c3cccc(-c4ccn5c(=O)c(CNC[C@@H](O)CC(=O)O)cnc5c4)c3Cl)c2Cl)cc(F)c1CNC[C@@H]1CCC(=O)N1 [Example 270, (3S)-4-[[8-[2-Chloro-3-[2-chloro-3-[4-fluoro-6-methoxy-5-[[[(2S)-5-oxopyrrolidin-2-yl]methylamino]methyl]-2-pyridyl]phenyl]phenyl]-4-oxo-pyrido[1,2-a]pyrimidin-3-yl]methylamino]-3-hydroxy-butanoic acid]",0.1 nM
10,"COc1nc(-c2cccc(-c3cccc(-c4ccc5nc(CN[C@H]6C[C@H](O)C6)cc(=O)n5c4)c3Cl)c2Cl)ccc1CNC[C@@H]1CCC(=O)N1 [Example 221, 7-(2,2′-dichloro-3′-(6-methoxy-5-(((((S)-5-oxopyrrolidin-2-yl)methyl)amino)methyl)pyridin-2-yl)-[1,1′-biphenyl]-3-yl)-2-((((1r,3r)-3-hydroxycyclobutyl)amino)methyl)-4H-pyrido[1,2-a]pyrimidin-4-one]",0.6 nM
11,"Cc1c(-c2ccn3c(=O)c(CNCCO)cnc3c2)cccc1-c1cccc(COc2cc(OCc3cncc(C#N)c3)c(CNCCO)cc2Cl)c1C#N [Example 16, 5-((4-Chloro-5-((2-cyano-3′-(3-(((2-hydroxyethyl)amino)methyl)-4-oxo-4H-pyrido[1,2-a]pyrimidin-8-yl)-2′-methyl-[1,1′-biphenyl]-3-yl)methoxy)-2-(((2-hydroxyethyl)amino)methyl)phenoxy)methyl)nicotinonitrile]",0.7 nM
12,"COc1nc(-c2cccc(-c3cccc(-c4ccn5c(=O)c(CNC[C@H]6C[C@H]6CO)cnc5c4)c3Cl)c2Cl)ccc1CNC[C@@H]1CCC(=O)N1 [Example 408, 8-(2,2′-Dichloro-3′-(6-methoxy-5-(((((S)-5-oxopyrrolidin-2-yl)methyl)amino)methyl)pyridin-2-yl)-[1,1′-biphenyl]-3-yl)-3-(((((1S,2R)-2-(hydroxymethyl)cyclopropyl)methyl)amino)methyl)-4H-pyrido[1,2-a]pyrimidin-4-one]",1.1 nM
13,"COc1nc(-c2cccc(-c3cccc(-c4ccn5c(=O)c(CNC[C@@H]6CCC(=O)N6)cnc5c4)c3Cl)c2Cl)ccc1CN1CC(C)(O)C1 [Example 157, (S)-8-(2,2′-Dichloro-3′-(5-((3-hydroxy-3-methylazetidin-1-yl)methyl)-6-methoxypyridin-2-yl)-[1,1′-biphenyl]-3-yl)-3-((((5-oxopyrrolidin-2-yl)methyl)amino)methyl)-4H-pyrido[1,2-a]pyrimidin-4-one]",1.6 nM
14,"COc1nc(-c2cccc(-c3cccc(-c4ccn5c(=O)c(CN6CC(C(=O)O)C6)cnc5c4)c3Cl)c2Cl)ccc1CNCCO [Example 188, 1-((8-(2,2′-Dichloro-3′-(5-(((2-hydroxyethyl)amino)methyl)-6-methoxypyridin-2-yl)-[1,1′-biphenyl]-3-yl)-4-oxo-4H-pyrido[1,2-a]pyrimidin-3-yl)methyl)azetidine-3-carboxylic acid]",0.1 nM
15,"COc1nc(-c2cccc(-c3cccc(-c4cc(C)n5c(=O)c(CNCCO)cnc5c4)c3Cl)c2Cl)ccc1CNC[C@@H]1CCC(=O)N1 [Example 308, (S)-8-(2,2′-Dichloro-3′-(6-methoxy-5-((((5-oxopyrrolidin-2-yl)methyl)amino)methyl)pyridin-2-yl)-[1,1′-biphenyl]-3-yl)-3-(((2-hydroxyethyl)amino)methyl)-6-methyl-4H-pyrido[1,2-a]pyrimidin-4-one]",22 nM
